Like-named read-outs stand apart in the source and are kept apart here.
Columns and labels:
[1] = molecular target: T1, FL-SMARCA2 (full-length human SMARCA2 isoform 1) (Homo sapiens, UniProt P51531); assay: SMARCA2 ATPase activity assay (ADP-Glo, chicken mononucleosome substrate); assay type: biochemical; conditions: ATP 250 uM
T1 construct: FLAG tag (YKDDDDK) (C); made in house; host or cells: Sf21 insect cells (baculovirus, pFastBacI)

[2] = molecular target: FL-SMARCA4 (Homo sapiens, UniProt P51532); assay: SMARCA4 ATPase activity assay (ADP-Glo, chicken mononucleosome substrate)
[3] = Table 3c.1, ATPase assay, enzyme 5 nM, chicken mononucleosome 10 nM, 30 min preincubation
[4] = FL-SMARCA4 IC>50, Table 3c.2, ATPase assay, enzyme 5 nM, ATP 250 uM, chicken mononucleosome 10 nM, 30 min preincubation
[5] = Table 3a.1, SMARCA2 5 nM, mononucleosome 10 nM
[6] = FL-SMARCA4 IC50, Table 3a.2, SMARCA4 5 nM, ATP 250 uM, mononucleosome 10 nM
[7] = Table 3.1, ATPase assay, enzyme 5 nM, chicken mononucleosome 10 nM, 30 min preincubation
[8] = FL-SMARCA4 IC50, Table 3.2, ATPase assay, enzyme 5 nM, ATP 250 uM, chicken mononucleosome 10 nM, 30 min preincubation
[9] = Table 3d.1, ATPase assay, enzyme 5 nM, chicken mononucleosome 10 nM, 30 min preincubation, read-out: FL-SMARCA2 IC>50
[10] = Table 3b.1, SMARCA2 5 nM, mononucleosome 10 nM
[11] = FL-SMARCA4 IC50, Table 3b.2, SMARCA4 5 nM, ATP 250 uM, mononucleosome 10 nM

T1 sequence (P51531 with tags, fused parts or gaps): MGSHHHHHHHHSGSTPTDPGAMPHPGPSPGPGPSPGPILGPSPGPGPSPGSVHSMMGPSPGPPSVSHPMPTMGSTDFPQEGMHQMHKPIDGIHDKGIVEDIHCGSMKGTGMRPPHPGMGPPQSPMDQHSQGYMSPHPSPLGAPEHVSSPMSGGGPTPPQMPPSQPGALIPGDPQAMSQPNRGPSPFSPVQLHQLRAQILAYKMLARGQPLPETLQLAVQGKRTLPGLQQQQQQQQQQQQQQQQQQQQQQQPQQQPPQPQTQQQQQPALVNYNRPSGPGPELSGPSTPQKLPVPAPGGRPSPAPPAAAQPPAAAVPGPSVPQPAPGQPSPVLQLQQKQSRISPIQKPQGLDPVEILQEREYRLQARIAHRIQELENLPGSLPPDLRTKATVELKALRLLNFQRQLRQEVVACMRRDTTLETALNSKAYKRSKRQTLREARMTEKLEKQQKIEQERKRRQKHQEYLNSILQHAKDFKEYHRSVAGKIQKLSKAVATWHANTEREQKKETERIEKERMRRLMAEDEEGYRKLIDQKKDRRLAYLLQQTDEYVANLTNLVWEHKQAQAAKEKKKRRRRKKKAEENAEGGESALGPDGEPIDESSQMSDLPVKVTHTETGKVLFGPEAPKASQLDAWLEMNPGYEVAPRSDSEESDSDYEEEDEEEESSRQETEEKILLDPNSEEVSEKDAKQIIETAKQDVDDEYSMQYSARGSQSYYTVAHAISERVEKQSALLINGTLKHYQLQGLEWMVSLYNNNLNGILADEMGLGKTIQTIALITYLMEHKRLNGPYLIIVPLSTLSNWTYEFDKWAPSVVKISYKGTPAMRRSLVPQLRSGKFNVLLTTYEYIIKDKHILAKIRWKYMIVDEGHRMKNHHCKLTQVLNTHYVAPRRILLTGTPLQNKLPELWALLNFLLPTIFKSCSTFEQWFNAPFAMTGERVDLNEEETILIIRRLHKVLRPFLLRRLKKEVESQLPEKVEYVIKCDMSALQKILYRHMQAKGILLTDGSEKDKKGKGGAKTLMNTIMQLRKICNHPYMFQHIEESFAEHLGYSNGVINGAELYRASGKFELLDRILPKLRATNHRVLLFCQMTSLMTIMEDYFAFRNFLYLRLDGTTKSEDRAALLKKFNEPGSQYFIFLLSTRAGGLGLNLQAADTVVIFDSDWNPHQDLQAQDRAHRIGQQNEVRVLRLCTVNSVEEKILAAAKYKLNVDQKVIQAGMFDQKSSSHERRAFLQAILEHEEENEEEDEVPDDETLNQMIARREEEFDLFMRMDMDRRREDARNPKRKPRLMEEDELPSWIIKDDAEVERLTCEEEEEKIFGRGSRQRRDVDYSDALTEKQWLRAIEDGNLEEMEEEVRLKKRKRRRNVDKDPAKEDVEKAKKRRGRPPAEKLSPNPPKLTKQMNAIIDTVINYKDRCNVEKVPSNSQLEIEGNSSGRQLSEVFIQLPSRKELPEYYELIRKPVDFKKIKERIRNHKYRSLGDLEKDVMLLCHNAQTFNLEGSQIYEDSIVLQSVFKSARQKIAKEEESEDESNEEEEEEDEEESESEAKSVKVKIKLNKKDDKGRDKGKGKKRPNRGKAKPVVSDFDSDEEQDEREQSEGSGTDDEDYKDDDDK
Chain of FL-SMARCA4 (P51532 whole entry): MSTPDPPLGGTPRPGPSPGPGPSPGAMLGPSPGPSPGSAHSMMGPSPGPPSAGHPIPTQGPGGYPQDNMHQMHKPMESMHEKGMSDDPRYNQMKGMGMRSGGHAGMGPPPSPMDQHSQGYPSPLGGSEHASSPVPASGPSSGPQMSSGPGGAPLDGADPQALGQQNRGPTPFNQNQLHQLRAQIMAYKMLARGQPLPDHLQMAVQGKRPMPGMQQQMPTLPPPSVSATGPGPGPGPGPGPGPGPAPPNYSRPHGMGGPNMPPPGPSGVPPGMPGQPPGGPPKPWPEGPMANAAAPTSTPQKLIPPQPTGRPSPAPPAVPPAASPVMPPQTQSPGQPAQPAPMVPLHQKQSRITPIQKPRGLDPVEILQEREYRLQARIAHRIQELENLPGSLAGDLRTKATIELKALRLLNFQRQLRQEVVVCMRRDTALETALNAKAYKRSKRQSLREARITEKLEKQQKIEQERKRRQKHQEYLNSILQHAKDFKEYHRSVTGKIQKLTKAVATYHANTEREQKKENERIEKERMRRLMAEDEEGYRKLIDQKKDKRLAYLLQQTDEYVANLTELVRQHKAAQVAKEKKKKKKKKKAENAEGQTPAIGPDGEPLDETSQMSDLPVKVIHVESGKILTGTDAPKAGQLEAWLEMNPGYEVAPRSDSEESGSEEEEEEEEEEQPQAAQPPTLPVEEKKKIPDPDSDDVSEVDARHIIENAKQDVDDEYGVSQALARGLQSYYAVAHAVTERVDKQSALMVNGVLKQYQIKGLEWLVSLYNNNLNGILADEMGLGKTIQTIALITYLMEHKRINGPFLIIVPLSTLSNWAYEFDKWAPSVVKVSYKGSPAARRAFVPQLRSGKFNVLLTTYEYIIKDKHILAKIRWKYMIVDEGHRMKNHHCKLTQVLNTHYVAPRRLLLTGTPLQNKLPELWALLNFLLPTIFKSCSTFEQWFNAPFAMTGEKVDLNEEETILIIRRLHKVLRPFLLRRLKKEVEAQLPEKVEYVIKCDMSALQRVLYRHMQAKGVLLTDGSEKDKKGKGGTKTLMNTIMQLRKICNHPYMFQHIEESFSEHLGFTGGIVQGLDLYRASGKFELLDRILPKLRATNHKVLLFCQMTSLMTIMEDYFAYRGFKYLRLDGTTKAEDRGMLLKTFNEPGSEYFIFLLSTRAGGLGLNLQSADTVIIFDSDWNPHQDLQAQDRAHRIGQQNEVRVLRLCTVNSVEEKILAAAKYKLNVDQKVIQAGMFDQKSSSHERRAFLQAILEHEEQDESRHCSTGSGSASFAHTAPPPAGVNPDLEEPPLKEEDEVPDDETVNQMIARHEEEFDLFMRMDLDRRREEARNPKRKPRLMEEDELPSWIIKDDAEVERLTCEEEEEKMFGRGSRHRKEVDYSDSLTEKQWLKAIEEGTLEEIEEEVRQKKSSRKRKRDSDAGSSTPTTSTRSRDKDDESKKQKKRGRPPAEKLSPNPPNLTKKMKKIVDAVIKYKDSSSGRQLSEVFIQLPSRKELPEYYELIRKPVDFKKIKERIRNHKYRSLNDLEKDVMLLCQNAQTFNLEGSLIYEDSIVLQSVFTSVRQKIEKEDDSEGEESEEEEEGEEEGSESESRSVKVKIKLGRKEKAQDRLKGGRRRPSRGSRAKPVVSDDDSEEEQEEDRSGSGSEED

IC50 [1, 7] [µM] | IC50 [2, 8] [µM] | other results | SMILES
 |  | IC50 [1, 3]: 6.81 µM; IC50 [2, 4]: 27.6 µM | O=C(Nc1cc(F)c(=O)n(CC(F)(F)CO)c1)c1cc(Cl)c(Cl)s1 [Compound 100c]
 |  | IC50 [1, 5]: > 50 µM; IC50 [2, 6]: > 50 µM | O=C(Nc1cc(F)c(=O)n(CCF)c1)N1CCCC1 [Compound 52a]
0.127 | 0.3 |  | N#Cc1sc(C(=O)Nc2ccc(=O)n(CC(F)F)c2)cc1Cl [Compound 293]
 |  | IC50 [1, 9]: > 50 µM; IC50 ([2]; FL-SMARCA4 IC50): > 50 µM | COc1c(C(=O)Nc2cc(F)c(=O)n(CC(F)F)c2)sc(Cl)c1Cl [Compound 46d]
> 50 | > 50 |  | O=C(Nc1cc(F)c(=O)n(CC(F)(F)F)c1)c1cnc(Cl)o1 [Compound 273]
 |  | IC50 [1, 5]: > 50 µM; IC50 [2, 6]: > 50 µM | CCn1cc(NC(=O)c2c[nH]c3ccccc23)ccc1=O [Compound 22a]
 |  | IC50 [1, 3]: > 50 µM; IC50 [2, 4]: > 50 µM | O=C(Nc1cc(-c2cnco2)c(=O)n(CC(F)F)c1)c1cc(Cl)c(C(F)(F)F)s1 [Compound 101c]
 |  | IC50 [1, 3]: 0.028 µM; IC50 [2, 4]: 0.0533 µM | O=C(Nc1cc(F)c(=O)n(CC(F)F)c1)c1cc(C#Cc2ccncc2)c(F)s1 [Compound 106c]
3.49 | 22.6 |  | Cn1c(C(=O)Nc2cc(F)c(=O)n(CCF)c2)cnc1Cl [Compound 205]
> 50 | > 50 |  | Cn1cc(C(=O)Nc2cc(F)c(=O)n(CCF)c2)sc1=O [Compound 227]
 |  | IC50 [1, 5]: > 50 µM; IC50 [2, 6]: > 50 µM | O=C(Nc1cc(F)c(=O)n(CCF)c1)c1ncccn1 [Compound 55a]
 |  | IC50 [1, 5]: > 50 µM; IC50 [2, 6]: > 50 µM | CN1C(=O)CCC1C(=O)Nc1cc(F)c(=O)n(CCF)c1 (centres unmarked) [Compound 50a]
 |  | IC50 [1, 3]: > 50 µM; IC50 [2, 4]: > 50 µM | O=C(Nc1cc(F)c(=O)n(CC(F)F)c1)c1cc(C#CC2COC2)c(C2CC2)s1 [Compound 94c]
1.23 | 8.93 |  | N#Cc1cc(NC(=O)c2cc(Cl)c(Cl)s2)cn(CCF)c1=O [Compound 193]
 |  | IC50 [1, 10]: > 50 µM; IC50 [2, 11]: > 50 µM | CCn1cc(NC(=O)[C@@H]2CCC[C@H](Cl)C2)ccc1=O [Compound 13b]
 |  | IC50 [1, 3]: 30.5 µM; IC50 [2, 4]: > 50 µM | O=C(Nc1cc(F)c(=O)n(CC(F)F)c1)c1cc2c(s1)C(F)(F)CNC2 [Compound 114c]
 |  | IC50 [1, 5]: > 50 µM; IC50 [2, 6]: > 50 µM | O=C(Nc1cc(F)c(=O)n(CCF)c1)N1CCn2ccnc2C1 [Compound 53a]

IC50 [1, 7] [µM] | IC50 [2, 8] [µM] | other results | SMILES
> 50 | > 50 |  | Cn1cc(NC(=O)c2cnc(-c3ccco3)s2)cc(Cl)c1=O [Compound 12]
1.28 | 3.66 |  | CCn1cc(NC(=O)c2cc(C#Cc3cccnc3)c(Cl)s2)ccc1=O [Compound 287]
> 50 | > 50 |  | CCn1cc(NC(=O)c2nc(Cl)c(Cl)s2)ccc1=O [Compound 64]
 |  | IC50 [1, 3]: > 50 µM; IC50 [2, 4]: > 50 µM | C[S+]([O-])c1cc(NC(=O)c2cc(F)c(Cl)s2)cn(CC(F)F)c1=O (centres unmarked) [Compound 8c]
 |  | IC50 [1, 3]: 6.98 µM; IC50 [2, 4]: 18.1 µM | O=C(Nc1cc(C#CCO)c(=O)n(CC(F)F)c1)c1cc(F)c(Cl)s1 [Compound 4c]
0.166 | 0.616 |  | Cn1c(C(=O)Nc2cc(F)c(=O)n(CCF)c2)cc(Cl)c1C#N [Compound 152]
> 50 | > 50 |  | CCn1cc(NC(=O)c2cc(C)nn2C)ccc1=O [Compound 16]
17.2 | 31.5 |  | CCn1cc(NC(=O)c2cc(OC)c(Cl)s2)ccc1=O [Compound 74]
8.52 | > 50 |  | Cn1c(C(=O)Nc2cc(F)c(=O)n(CC(F)(F)F)c2)cnc1Cl [Compound 212]
> 50 | > 50 |  | CN(C)C(=O)c1sc(C(=O)Nc2cc(F)c(=O)n(CCF)c2)cc1Cl [Compound 282]
 |  | IC50 [1, 9]: > 50 µM; IC50 ([2]; FL-SMARCA4 IC50): > 50 µM | NC(=O)c1cc(C(=O)Nc2cc(F)c(=O)n(CC(F)F)c2)sc1C(F)(F)F [Compound 35d]
> 50 | > 50 |  | CCn1cc(NC(=O)c2cnc(NC3CCCC3)s2)ccc1=O [Compound 216]
> 50 | > 50 |  | CCn1cc(NC(=O)c2cn(C(F)(F)F)c(Cl)n2)ccc1=O [Compound 124]
> 50 | > 50 |  | CNC(=O)c1sc(C(=O)Nc2cc(F)c(=O)n(CCF)c2)cc1Cl [Compound 278]
 |  | IC50 [1, 10]: > 50 µM; IC50 [2, 11]: > 50 µM | CC(=O)Nc1ccc(C(=O)Nc2cc(F)c(=O)n(CCF)c2)cc1Cl [Compound 22b]
0.356 | 0.531 |  | CCn1cc(NC(=O)c2cnc(Cl)s2)cc(Cl)c1=O [Compound 103]
> 50 | > 50 |  | O=C(Nc1cc(F)c(=O)n(CCF)c1)c1ccc(-c2cccnc2)s1 [Compound 313]

From patent publication US20220356174A1, “PYRIDIN-2-ONE COMPOUNDS USEFUL AS SMARCA2 ANTAGONISTS” (Epizyme, Inc., priority 2018, published 2022)
